Experimental data as given in patent publication EP0741709B1, “AROMATIC 2-AMINO-IMIDAZOLE DERIVATIVES AS ALPHA-2A ADRENOCEPTOR AGONISTS” (Allergan Sales, Inc., priority 1994, dated 1995).

Biological target: T1, human α2C (Homo sapiens, UniProt P18825)
T1 construct: expressed in transfected cells; host or cells: CHO (CHO-C4)
T1 sequence (P18825 1-462): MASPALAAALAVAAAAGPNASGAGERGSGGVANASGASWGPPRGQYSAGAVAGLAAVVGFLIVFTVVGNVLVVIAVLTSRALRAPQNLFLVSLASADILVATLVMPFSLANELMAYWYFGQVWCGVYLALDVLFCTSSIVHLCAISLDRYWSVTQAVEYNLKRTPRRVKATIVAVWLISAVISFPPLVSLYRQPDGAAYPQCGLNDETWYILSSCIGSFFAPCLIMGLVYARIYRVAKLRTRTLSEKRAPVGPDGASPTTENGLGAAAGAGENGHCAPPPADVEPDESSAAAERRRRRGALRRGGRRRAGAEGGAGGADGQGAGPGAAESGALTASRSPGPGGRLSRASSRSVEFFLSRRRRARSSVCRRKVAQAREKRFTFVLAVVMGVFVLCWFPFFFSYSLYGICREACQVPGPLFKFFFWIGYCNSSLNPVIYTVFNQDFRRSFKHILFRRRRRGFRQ
Assay: Receptor binding assay, [3H]rauwolscine, CHO-C4 cell membranes
Conditions: 22°C, 30 minutes
Procedure: Cell preparation: Chinese hamster ovary (CHO) cells expressing the human α2A and human α2C (CHO-C10 and CHO-C4 respectively) receptors and CHO cells (CHO-RNG) expressing the rat α2B adrenoceptor were grown to near confluence in Dulbecco's modified Eagle's medium supplemented with 10% fetal bovine serum using standard cell culture methods. Cells were harvested by scraping and placed into cold buffer of the following composition: 50 mM Tris-HCl, 5 mM EDTA, pH 7.4). Cells were then homogenized with a Polytron homogenizer for 2 X 10 sec at setting #7, and centrifuged for 20 minutes at 49,000 x g. The pellet fraction was washed (resuspended in Tris-HCl, pH 8 buffer and centrifuged for 15-20 minutes at 49,000 x g) 2 times and stored at -100°C until binding assay.
Binding Studies: The radioligands [^3H]rauwolscine (specific activity 80 Ci/mmol) and [^3H]prazosin (specific activity 76 Ci/mmol) were obtained from New England Nuclear, Boston, MA. Frozen membrane pellet was resuspended in 25 mM glycine/glycine, pH 7.5 and incubated with radioligand under the following conditions: CHO-C10, CHO-RNG, CHO-C4-[^3H]rauwolscine, 22°C, 30 minutes; RKC-[^3H]rauwolscine, 0°C, 120 minutes; and, HCC-[^3H]prazosin, 22°C, 30 minutes in a final volume of 500 ul. At the end of the incubation period, the samples were filtered through glass filters (Whatman GF/B) in a 96 well cell harvester and rapidly washed four times with 4 mL of iced-cold 50 mM Tris-HCl buffer. The filters were then oven dried and transferred to scintillation vials containing 10 mL of Beckman's Ready Protein® scintillation cocktail for counting. Specific binding defined by 10 uM phentolamine for competition studies were as follows: 2.4 nM [^3H]brimonidine-RbICB 62%; 2.4 nM [^3H]rauwolscine-RbICB 75%; 2 nM [^3H]rauwolscine-RbKc 88%; 0.3 nM [^3H] rauwolscine-CHO-C10 99%; 0.4 nM [^3H]rauwolscine-CHO-RNG 99%, 0.3 nM [^3H]prazosin 87%; and 1 nM [^3H]rauwolscine-CHO-C4 90%. Protein concentrations were determined with a protein assay kit from Bio Rad. Binding isotherms, equilibrium dissociation and affinity constants were analyzed and determined by the non-linear least squares curve fitting programs EBDA (BioSoft) or AccuFit Competition/Saturation by Beckman.
The radioligands [^3H)rauwolscine (specific activity 80 Ci/mmol) and [^3H]prazosin (specific activity 76 Ci/mmol) were obtained from New England Nuclear, Boston, MA. Frozen membrane pellet was resuspended in 25 mM glycine/glycine, pH 7.4 and incubated with radioligand under the following conditions: CHO-C10, CHO-RNG, CHO-C4-[^3H]rauwolscine, 22°C, 30 min.; and, HCC-[^3H]prazosin, 22°C, 30 minutes in a final volume of 500 ul. At the end of the incubation period, the samples were filtered through glass fiber filters (Whatman GF/B) in a 96 well cell harvester and rapidly washed four times with 4 mL of iced-cold 50 mM Tris-CHl buffer. The filters were then oven dried and transferred to scintillation vials containing 5 mL of Beckman's Ready Protein® scintillation cocktail for counting. Specific binding defined by 10 uM phentolamine for competition studies were as follows: 0.3 nM[^3H] rauwolscine-CHO-C10 99%; 0.4 nM [^3H]rauwolscine-CHO-RNG 99%, and 0.3 nM [^3H] prazosin-HCC 87%. Protein concentrations were determined with a protein assay kit from Bio Rad. Binding isotherms, equilibrium dissociation and affinity constants were analyzed and determined by the non-linear least squares curve fitting programs AccuFit Competition/Saturation by Beckman.

Compound | Ki [nM]
c1ccc(Nc2ncc[nH]2)cc1 | 3240
Clc1cccc(Cl)c1Nc1ncc[nH]1 | 1120
Brc1c(Nc2ncc[nH]2)ccc2nccnc12 | 9670
Cc1c(Nc2ncc[nH]2)ccc2c1OCCO2 | 19
c1cc2c(c(Nc3ncc[nH]3)c1)CCCC2 | 252
Cc1c(Nc2ncc[nH]2)ccc2c1NCCO2 | 229

Next, values leading:

Ki [nM] | Compound
512 | COc1ccc(Nc2ncc[nH]2)c(C)c1
2250 | Clc1ccccc1Nc1ncc[nH]1
2390 | Brc1ccccc1Nc1ncc[nH]1
577 | Cc1ccccc1Nc1ncc[nH]1
